Tested on: human endothelial cells in co-culture (AngioKit)
Assay: AngioKit in vitro angiogenesis model (tubule formation, CD31 staining, image analysis)
Assay type: cell-based
Procedure: The in vitro model we used was the AngioKit (Biopredic—ref ZHA-1000—lot no. 25173T) which approaches a more global vision of angiogenesis. In this model, human endothelial cells are seeded in a specific medium in co-culture with another type of human cells. In the initial phase, the endothelial cells form small islets. They begin to proliferate and then enter into a migration phase which leads to formation of structures of filamentous tubule form in the matrix. At the end of 10 to 12 days, the connections established form a network of anastomosed tubules. The staining of the tubules is obtained by specific marking of the antigen of surface antigen CD31 (PECAM-1), which is expressed by the endothelial cells.
The test is validated by staining the tubules and verification of the inhibitory and activating action of two pharmacological compounds known to act on angiogenesis. The action on angiogenesis of the active ingredients tested was evaluated by quantitative image analysis.
The cells were cultured in 24-well plates in an incubator at 37° C. under a humid atmosphere containing 5% CO2.
The specific culture medium was eliminated and the cells were placed under different experimental conditions:
Negative control: suramin, agent inhibiting formation of tubules—final concentration: 20 μM;
Positive control: VEGF, activating agent of angiogenesis—final concentration: 2 ng/ml;
Composition for the face: Since this composition of essential oils is not miscible in the culture medium, it was dissolved in absolute ethanol and tested at three concentrations (the non-cytotoxic character of which had been verified in advance by 24-hour contact with normal human fibroblasts): 0.005%-0.01%-0.05% (v/v); and
Solvent control: since ethanol could have effects on angiogenesis, it was tested at the final concentration required for dissolving the essential oils composition: 0.1% (v/v).
Each condition was implemented in duplicate. Microscopic observation of the cells was performed daily to monitor formation of tubules as shown in the photograph of FIG. 2.
The media were eliminated and the conditions were renewed on the 3rd, 6th and 9th day of the experiment. On the 10th day, the cells were fixed and stained: after rinsing in the PBS buffer, the cells were fixed in a 70% ethanol solution cooled at −20° C. for 30 minutes. The cells were then incubated for 1 hour at 37° C. with the human anti-CD-31 ZIS-3090 antibody (TCS CellWorks). […]
Evaluation of the angiogenic power of the compound tested was quantified by image analysis (Olympus IX70 Auto Analysis System) by measuring the length of the tubules developed (in μm) and the number of junctions established within the anastomosed network. […]

| Molecule | inhibition at 20 µM (Homo sapiens, Endothelial cell, 240 h, read-out: inhibition of the length of the tubular network compared to the control) [%] | number of junctions diminished by a factor compared to the control (suramin 20 μM, day 10) | number of junctions augmented by a factor compared to the control (VEGF 2 ng/ml, day 10) | stimulator effect on the length of the tubular network compared to the control (VEGF 2 ng/ml, day 10) [%] |
| --- | --- | --- | --- | --- |
| Cc1ccc(C(=O)Nc2ccc(S(=O)(=O)O)c3cc(S(=O)(=O)O)cc(S(=O)(=O)O)c23)cc1NC(=O)c1cccc(NC(=O)Nc2cccc(C(=O)Nc3cc(C(=O)Nc4ccc(S(=O)(=O)O)c5cc(S(=O)(=O)O)cc(S(=O)(=O)O)c45)ccc3C)c2)c1 [suramin] | 49 | 5.7 | – | – |
| VEGF | – | – | 1.7 | 54 |

From US7666454B2, “Cosmetic composition comprising an essential oil extracted from Helichrysum italicum” (L'Occitane, priority 2001, dated 2010)
